{"source": "paper PMC10999112", "about": "(Angewandte Chemie (International ed. in English), 2023)", "target": "recombinant WT-NSUN2 (Homo sapiens, UniProt Q08J23)", "sequence (Q08J23 whole entry)": "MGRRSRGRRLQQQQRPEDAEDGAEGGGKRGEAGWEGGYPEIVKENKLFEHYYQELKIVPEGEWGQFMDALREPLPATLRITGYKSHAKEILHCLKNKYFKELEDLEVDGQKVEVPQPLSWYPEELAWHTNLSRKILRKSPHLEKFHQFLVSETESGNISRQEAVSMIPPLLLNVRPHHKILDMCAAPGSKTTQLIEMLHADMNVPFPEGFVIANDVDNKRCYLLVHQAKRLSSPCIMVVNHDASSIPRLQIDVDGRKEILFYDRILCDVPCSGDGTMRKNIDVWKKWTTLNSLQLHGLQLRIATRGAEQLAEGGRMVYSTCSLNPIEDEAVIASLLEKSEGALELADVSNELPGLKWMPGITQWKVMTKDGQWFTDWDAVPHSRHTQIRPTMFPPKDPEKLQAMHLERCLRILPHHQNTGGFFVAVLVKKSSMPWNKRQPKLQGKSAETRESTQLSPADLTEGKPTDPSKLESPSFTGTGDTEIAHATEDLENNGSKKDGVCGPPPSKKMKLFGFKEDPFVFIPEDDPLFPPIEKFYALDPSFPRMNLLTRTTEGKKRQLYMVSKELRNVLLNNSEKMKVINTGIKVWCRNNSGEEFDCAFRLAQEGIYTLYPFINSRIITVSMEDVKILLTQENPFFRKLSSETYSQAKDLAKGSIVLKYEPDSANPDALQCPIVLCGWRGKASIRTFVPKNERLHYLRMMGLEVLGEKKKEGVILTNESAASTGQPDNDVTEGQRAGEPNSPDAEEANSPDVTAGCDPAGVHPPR", "assay": "Gel-ABPP in lysate of WT-NSUN2-expressing HEK293T cells", "format": "binding", "conditions": "recombinant WT-NSUN2 in HEK293T cell lysates", "data": [{"smiles": "Nc1ncnc2c1ncn2[C@@H]1O[C@H](CSCC[C@H](N)C(=O)O)[C@@H](O)[C@H]1O", "note": "[SAH, S-adenosylhomocysteine]", "values": [{"measurement": "blockade of MY-11B reactivity with NSUN2", "result": "blocked in a concentration-dependent manner"}]}]}
